Drawing on ChEMBL document CHEMBL1146507, “Antityrosinase principles and constituents of the petals of Crocus sativus” (J Nat Prod, 2004), this text covers IC50 and Activity for seven molecules.

For one assay, the target named is T1, Tyrosinase (Agaricus bisporus, UniProt O42713).
T1 sequence (O42713 whole entry): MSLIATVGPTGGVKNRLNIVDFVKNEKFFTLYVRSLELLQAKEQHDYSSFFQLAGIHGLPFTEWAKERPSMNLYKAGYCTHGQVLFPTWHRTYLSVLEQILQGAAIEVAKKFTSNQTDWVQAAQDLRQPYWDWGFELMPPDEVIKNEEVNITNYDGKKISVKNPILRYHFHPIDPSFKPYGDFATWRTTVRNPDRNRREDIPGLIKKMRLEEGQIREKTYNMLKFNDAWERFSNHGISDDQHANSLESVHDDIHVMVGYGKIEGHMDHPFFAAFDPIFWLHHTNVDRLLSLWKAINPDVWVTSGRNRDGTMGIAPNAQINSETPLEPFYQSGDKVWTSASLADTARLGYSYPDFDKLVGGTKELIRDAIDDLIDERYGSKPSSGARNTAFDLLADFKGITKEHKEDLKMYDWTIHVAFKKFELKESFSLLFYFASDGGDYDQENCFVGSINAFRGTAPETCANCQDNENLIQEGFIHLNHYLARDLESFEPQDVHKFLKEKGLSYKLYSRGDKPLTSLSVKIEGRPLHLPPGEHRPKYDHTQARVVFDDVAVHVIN

In assay [1] the test system is Radical scavenging activity. In words: Antioxidant activity assessed as DPPH radical scavenging activity at 0.1 mg/mL. The class given is functional.
The test system of assay [2] is Radical scavenging activity. The assay is described as follows: Antioxidant activity assessed as DPPH radical scavenging activity. In kind it is functional. (In general: The DPPH test is a chemical assay of radical scavenging.)

Each structure is given as a SMILES string. ≈ marks a conversion by molar mass, not a printed value.

Description for Tyrosinase: Inhibition of mushroom tyrosinase by spectrophotometry

For `CC1=C(C=O)C(C)(C)[C@@H](O)[C@H](O)C1` [CROCUSATIN K], inhibition against Tyrosinase was half-maximal at 260 µM (IC50).

As to `CC1=C(CO)C(C)(C)CC(=O)C1O` (configuration not stated) [CROCUSATIN L], the 50% inhibitory concentration (IC50) (in general, the midpoint of a concentration-inhibition curve) on Tyrosinase amounted to 1000 µM.

Turning to `CC1=CC(=O)CC(C)(C)C1O` (configuration not stated), the IC50 at Tyrosinase was found to be 1100 µM.

Regarding `O=C(O)c1ccc(O)c(O)c1`, in assay [1], the Activity was 89.9%.

As for `O=c1c(O)c(-c2ccc(O)cc2)oc2cc(O[C@@H]3O[C@H](CO)[C@@H](O)[C@H](O)[C@H]3O)cc(O)c12`, in assay [1], the Activity was 91.2%.

Consider `Cc1c(C)c2c(c(C)c1O)CC[C@@](C)(CCC[C@H](C)CCC[C@H](C)CCCC(C)C)O2` [ALPHA-TOCOPHEROL], for which the IC50 in assay [2] came to 150 µg/mL (≈ 348 µM).

On to `O=c1c(O)c(-c2ccc(O)cc2)oc2cc(O)cc(O)c12`, for which the Activity in assay [1] turned out to be 86.5%.
